For 2 compounds, IC50 and melting point results are on record in patent US6861445B2, “3-Substituted-3-(substitutedsulfonyl or sulfanyl)pyrrolidine-2,5-diones useful for inhibition of farnesyl-protein transferase” (Wyeth Holdings Corporation, priority 2001, dated 2005).

For one data set, the target named is FPTase (K-Ras substrate) (Homo sapiens, UniProt P49354+P49356). As to the kind of experiment: in vitro FTase Inhibition Assay, K-Ras as substrate for farnesylation. It is filed as biochemical. Particulars: K-Ras used as substrate for farnesylation. The method, then: (§1) The ability of the compounds of this invention to inhibit FPTase was evaluated in the standard pharmacological in vitro test procedures described below.
(§2) Enzyme test procedure: FPTase inhibition in vitro assay was performed according to James, G. L., Brown, M. S., and Goldstein, J. L., Methods in Enzymology, 1995, 255, 38-46; and Garcia, M. A., et al., J. Biol. Chem., 1993, 268, 18415-18420.
(§3) • Materials—Purified FPTase (Moomaw, J. F. and Casey, P. J., J. Biol. Chem., 1992, 267, 17438-17443), purified His6-Ras, inhibitor compounds at 10 mg/ml or 10 mM in 100% DMSO, ^3H-FPP (50,000 dpm/pmol) Amersham, TCA/SDS (6%/2%), TCA (6%), Glass fiber filters (0.22-0.45 m), vacuum manifold or 96 well filtration plates. • Methods—1. Dilute FPTase inhibitors from stock solutions to 2.5× in 2.5% DMSO, 10 mM DTT, 0.5% octyl-B-glucoside. 2. Solution #1 is added to FPTase reaction in a volume of […]. 3. Standard reaction mix, […], contains 50 mM Tris (7.5),[…], 3 mM MgCl2, 20 mM KCl, 5 mM DTT, 0.2% octyl-B-glucoside, 1% DMSO, […] His6-Ras, 10 ng FPTase, and various concentrations of FPTase inhibitors. 4. Incubate for 30-90 min at 25° C. 5. […] Add scintillant to filters, measure ^3H-FPP incorporation into Ras protein. • Analysis of Results—Percent inhibition by test compounds is determined by the following: […]. […]

Another data set addresses FPTase (H-Ras substrate) (Homo sapiens, UniProt P49354+P49356). The data set can be described thus: in vitro FTase Inhibition Assay, H-Ras as substrate for farnesylation. It is filed as biochemical. Particulars: H-Ras used as substrate for farnesylation. The method, then:
as §1, §2, §3

By IC50 is commonly meant the concentration at which inhibition is half-maximal. A low value points to greater potency. One may read the melting point as the temperature, or range, at which the solid turns liquid. As for `COc1ccc(S(=O)(=O)C2(CCCC#Cc3ccc(Cl)cc3)CC(=O)NC2=O)cc1` (stereo not shown) [3-[5-(4-Chlorophenyl)pent-4-ynyl]-3-(4-methoxybenzenesulfonyl)-pyrrolidine-2,5-dione], the melting point lay within 160 to 162 °C. On FPTase (K-Ras substrate), this compound yielded a half-inhibitory concentration (IC50) greater than 1000 nM. On FPTase (H-Ras substrate), this compound registered an IC50 of 0.14 µM.
As to `Cc1ccc(S(=O)(=O)C2(CC#Cc3ccc(Cl)cc3)CC(=O)NC2=O)cc1` (stereo not shown) [3-[-3-(4-Chlorophenyl)prop-2-ynyl]-3-(toluene-4-sulfonyl)pyrrolidine-2,5-dione], on FPTase (H-Ras substrate), half-maximal inhibition (IC50) required 6.5 µM.
